Experimental data published in publication PMC9719539, “Single-molecule characterization of subtype-specific β1 integrin mechanics” (Nature Communications, 2022).

Experiments:
[1] = system: BJ-5ta cells; assay: Cytoskeletal inhibitor effects on TGT rupture and spreading; type: cell-based, human; settings: for cell spreading with inhibitor (in words): RGD- and LDVP-TGT; for cell spreading with inhibitor (in words) / TGT rupture with inhibitor (in words), all substrates: 1 h; for TGT rupture with inhibitor (in words), all substrates: inhibitors 5 min preincubation
Description: (21 pictures or pasted objects on this page, not shown here)

[2] = system: extended-open β1 integrin on BJ-5ta cells; assay: β1 integrin activation: number and density of bound AF647-12G10 Fab on biotin-PEG-cholesterol immobilized cells; type: cell-based, human
[3] = system: BJ-5ta cells; assay: Percentage of spread cells / cell spreading on TGT surfaces; type: cell-based, human; settings: for tension threshold for cell spreading: nominal Ttol
Protocol: Glass coverslips were densely PEGylated to minimize non-specific interactions such as the binding of cell-secreted extracellular matrix proteins. Coverslips cleaned by piranha etching solution (a 3:1 mixture of sulfuric acid and hydrogen peroxide) were incubated in silanization solution (UCT, 1760-24-3; 2% aminosilane and 5% acetic acid in methanol) for 30 min and reacted with a mixture of Polyethylene glycol (PEG) with and without biotin (1:19, 150 mg/ml; Laysan Bio, Biotin-PEG-SVA-5000 and MPEG-SVA-5000) for 4 h. Surfaces were washed thoroughly and dried using nitrogen gas after each step. A 3D-printed dish (PLA) or a silicon gasket (Grace Bio Labs, 103280) was attached to the coverslip to form a dish. Neutravidin (Thermo Fisher scientific, 31000; 0.4 mg/ml) was added to the dish for 10 min and washed out thoroughly. The dish was emptied and a droplet (3 µL) of TGT solution (100 nM unless specified otherwise) was placed on the coverslip for 10 min in a humid condition to locally immobilize TGT. For the lateral drift correction for time-resolved TGT rupture analysis, biotin-coated gold nanoparticles (Luna Nanotech, GNP-BIOT-100-2-04; 100 nm) were sparsely immobilized as fiducial markers. For protein ligand coating, protein (50 ug/ml in PBS) was incubated in glass bottomed imaging dishes for 1 h at RT without additional passivation.
The cells were gently harvested by washing in PBS for 1 min, incubating with 0.05% trypsin for 3 min, and then neutralizing with cell culture medium (FBS 10%). The cells were spun down and resuspended with Leibovitz’s L-15 Medium (Gibco, 21083027) supplemented with 2 g/L glucose, then seeded on the TGT surface at an approximate density of 30 cells/mm^2. For integrin inhibition experiments, cells were incubated with Fab for 5 min before seeding. For cell immobilization experiments, cells were incubated with 1 nM Cholesterol-PEG-Biotin (Nanosoft Polymers, 3084-2000) for 5 min, followed by washes by centrifugation to remove biotin in solution before seeding. The imaging area was humidified and the temperature was maintained at 37 °C. A Nikon Eclipse Ti microscope equipped with Xenon arc lamp, Nikon perfect focus system, custom total internal reflection fluorescence microscopy (TIRFM) module, and custom reflection interference contrast microscopy (RICM) module was driven by Elements software. Dark regions in RICM show where cells have closely adhered to the surface (≪300 nm gap). Nikon 10X objective (CFI60 Plan Fluor) and 60X objective (CFI60 Apochromat TIRF) with DIC filter sets were used. […] Images were recorded using an electron-multiplying charge-coupled device (EMCCD; Andor iXon 888).
Single-cell data were obtained from multiple independent sample preparations for each condition as specified. Percentage of spread cells was obtained from three independent experiments. Statistical analyses were performed using MATLAB software. Two-sided (two sample) t-test was used for two group comparisons. Each group was compared with the control group unless specified otherwise. Representative micrographs are selected from at least two independent experiments.

[4] = system: BJ-5ta cells; assay: Actin retrograde flow rate (kymographs, SiR-actin); type: cell-based, human; settings: 64, 71 loci from 15, 13 cells
Protocol: BJ-5ta cells were seeded on RGD-54pN or LDVP-54pN surfaces for 40 min and 20 nM SiR-actin and 10 µM verapamil (Cytoskeleton, CY-SC001) were added 20 min before imaging. Time-lapse TIRF imaging (640 nm) was done with 2–5 s interval for more than 60 frames. Kymographs were generated with ImageJ and the linear fit analysis was done with MATLAB scripts.

[5] = system: BJ-5ta cells; assay: BJ-5ta spreading on ACRGD-TGT with or without integrin blocking Fabs (area, aspect ratio); type: cell-based, human
Protocol: Fig. 9 Integrin α5β1 mediated cell spreading. a Affinity of ACRGD for integrins on intact cells. Titration curves are shown in Supplementary Fig. 13. b–d Behavior of BJ-5ta on ACRGD-54pN (BHQ2-Cy3) surfaces after 1 h in presence of integrin blocking Fabs described in Fig. 6 legend. b Close-contact enclosed area from RICM images (n = 43, 38, 47, 96, 50 cells). c Aspect ratio of contact area (n = 56, 49, 38 cells, >500 μm^2). d Ruptured TGT counts (n = 44, 40, 48, 96 cells). e–g Cell spreading on ACRGD-TGT of different Ttol in presence of integrin blocking Fabs. e Representative images of cells with RICM (top row) and same cells with DIC or Cy3 fluorescence to show TGT rupture (bottom row). Dim RICM rings (~20 μm diameter) with 12, 23 and 33 pN TGT are the shadows of the spherical cell body, not the close contacts. […]
The cells were gently harvested by washing in PBS for 1 min, incubating with 0.05% trypsin for 3 min, and then neutralizing with cell culture medium (FBS 10%). […] A Nikon Eclipse Ti microscope equipped with Xenon arc lamp, Nikon perfect focus system, custom total internal reflection fluorescence microscopy (TIRFM) module, and custom reflection interference contrast microscopy (RICM) module was driven by Elements software. […] Images were recorded using an electron-multiplying charge-coupled device (EMCCD; Andor iXon 888).

[6] = biological target: T1, integrin αVβ5 (Homo sapiens, UniProt P06756+P18084); assay: Competition with cRGDfK-TF5WS binding to αVβ5 on K562 transfectants
T1 construct: expressed in transfected cells
Description: (§1) Source data are provided as a Source Data file. […]
(§2) Source data are provided as a Source Data file.
(§3) (1 picture or pasted object on this page, not shown here)

[7] = biological target: T2, integrin αVβ3 (Homo sapiens, UniProt P05106+P06756); assay: Competition with cRGDfK-TF5WS binding to αVβ3 on K562 transfectants
T2 construct: expressed in transfected cells
Description: as §1, §2, §3

[8] = biological target: integrin α4β1 (EO state); settings: extended-open conformation; read-out: affinity for EO state of α4β1; cited from earlier work
[9] = system: BJ-5ta cells; assay: Traction force microscopy on ligand-coated polyacrylamide gels; type: cell-based, human
Protocol: Polyacrylamide gels (0.69 and 4.07 kPa shear modulus, 40 μm thickness) were prepared on glass coverslips with embedded 40 nm fluorescent beads (Thermo Scientific, TransFluoSpheres 633/720) and the surfaces were coated with neutravidin as described. […] Cells were seeded on the gels for 1 h. The bead images were taken before and after cell removal with the addition of 0.1% SDS. Bead displacements were determined using particle image velocimetry, and the corresponding contractile energy was estimated with Fourier transform traction cytometry, using ImageJ plugins. The cell area was determined by manually drawing an ROI in the DIC channel. Imaging was performed on Nikon Eclipse Ti2 microscopes equipped with Perfect Focus, CSU-W1 spinning disk, and Hamamatsu Orca-flash 4.0 v3 camera. Illumination was provided by optical fiber (Oz Optics) coupled solid-state lasers: 561 nm (200 mW) for Cy3 and, 655 nm (100 mW) for fluorescent beads from Spectral Applied Research.

For O=S(=O)(c1cccc2c(I)cccc12)N1CCCNCC1 [ML-7], the “rupture of RGD-54pN with inhibitor (in words)” value ([1]; RGD-54pN) was “significantly suppressed” and the “cell spreading with inhibitor (in words)” value [1] was “did not disrupt cell spreading”.

For “MUPA-LDVPAAK [LDVP-TGT, tension gauge tether conjugated with MUPA-LDVPAAK]”, the “force needed for activation of β1 integrin to high affinity state” value [2] was “less than 12 pN”, the “12G10 Fab density / activated β1 density (in words)” value ([2]; versus control, 30 min) was “significantly above the control and similar at all Ttol” and the “tension threshold for cell spreading” value ([3]; 1 h) was < 12 pN. The “cell spreading (in words)” value ([3]; 1 h after seeding) was “adhered and spread well” and the retrograde actin flow [4] was 24.8 nm/s.

With O=C1NC(=S)N(c2cccc(Br)c2)C(=O)/C1=C/c1ccco1 [SMIFH2] the “TGT rupture with inhibitor (in words), all substrates” value (shortened to “TGT rupture with inhibitor (in words)”) [1] was “greatly diminished TGT rupture” and the “cell spreading with inhibitor (in words)” value [1] was “greatly decreased spreading”.

With “cyclic-ACRGDGWCGK (disulfide) [ACRGD-TGT]” the “spreading on ACRGD-54pN with blocking Fabs (in words)” value ([5]; ACRGD-54pN (BHQ2-Cy3), 1 h) was “spread efficiently and developed elongated, irregular shapes” and the “force level required for spreading through α5β1” value ([5]; blocking Fabs to αVβ1, αVβ3 and αVβ5 present) was > 33 pN.

For C[C@@H](N)[C@H]1CC[C@H](C(=O)Nc2ccncc2)CC1 [Y-27632], the “rupture of RGD-54pN with inhibitor (in words)” value ([1]; RGD-54pN) was “significantly suppressed” and the “cell spreading with inhibitor (in words)” value [1] was “did not disrupt cell spreading”.

For C[C@H](N)C(=O)N[C@H]1CSSC[C@@H](C(=O)NCC(=O)O)NC(=O)[C@H](Cc2c[nH]c3ccccc23)NC(=O)CNC(=O)[C@H](CC(=O)O)NC(=O)CNC(=O)[C@H](CCCNC(=N)N)NC1=O, the EC50 ([6]; EC50 αVβ5, L15 + 1 mM Mn2+, competition with 25 nM cRGDfK-TF5WS) was 102 ± 7 nM, the EC50 ([6]; EC50 αVβ5, L15, no Mn2+, competition with 50 nM cRGDfK-TF5WS) was 367 ± 29 nM and the Kd ([6]; Kd αVβ5, L15 + 1 mM Mn2+, 1% BSA, competition with 25 nM cRGDfK-TF5WS) was 50 ± 4 nM. It also gave an IC50 [7] of 765 ± 84 nM, a Kd ([7]; Kd αVβ3, L15 + 1 mM Mn2+, 1% BSA, competition with 25 nM cRGDfK-TF5WS) of 170 ± 20 nM and a Kd ([7]; Kd αVβ3, L15, 1% BSA, no Mn2+, competition with cRGDfK-TF5WS (25 nM for Fabs, 50 nM for ACRGDGWCG), Kd = EC50/(1+CL/Kd,L)) of 530 ± 60 nM.

For C=C1[C@@H](C)[C@H]2[C@H](Cc3ccccc3)NC(=O)[C@]23[C@H](OC(C)=O)/C=C/[C@@](C)(O)C(=O)[C@@H](C)C/C=C/[C@H]3[C@@H]1O [Cytochalasin D], the “TGT rupture with inhibitor (in words)” value [1] was “eliminated TGT rupture on all substrates” and the “cell spreading with inhibitor (in words)” value [1] was “inhibited cell spreading”.

In the case of “MUPA-LDVPAAK [α4β1-specific peptidomimetic; 2-methylphenylureaphenylacetyl moiety linked to LDVP motif]”, the Kd [8] is listed as 0.15 nM, the “spread cells (fraction), sheet 1c” value ([3]; TGT 0.01 nM) is listed as 0.05399 and the “spread cells (fraction), sheet 1c” value ([3]; TGT 0.1 nM) is listed as 0. The “spread cells (fraction), sheet 1c” value ([3]; TGT 0.3 nM) was 0.8785, the “spread cells (fraction), sheet 1c” value ([3]; TGT 1 nM) was 0.9623 and the “spread cells (fraction), sheet 1c” value ([3]; TGT 10 nM) was 0.9712. The “spread cells (fraction), sheet 1c” value ([3]; TGT 100 nM) was 0.9873, the “Spread cells on TGT, 12pN” value ([3]; Ttol 12pN, 1 h, mean, SE in own column, n = 3 independent experiments, given as fraction) was 0.9277 and the “Spread cells on TGT, 23pN” value ([3]; Ttol 23pN, 1 h, mean, n = 3, given as fraction) was 0.9461. For the same molecule, the “Spread cells on TGT, 33pN” value ([3]; Ttol 33pN, 1 h, mean, n = 3, given as fraction) was 0.9711, the “Spread cells on TGT, 43pN” value ([3]; Ttol 43pN, 1 h, mean, n = 3, given as fraction) was 0.9954 and the “Spread cells on TGT, 54pN” value ([3]; Ttol 54pN, 1 h, mean, n = 3, given as fraction) was 0.9781. For the same molecule, the “traction force (in words)” value ([9]; 4 kPa and 0.7 kPa gels, versus RGD) was “significantly lower” and the “lower traction force than on RGD” value ([9]; soft gel (0.7 kPa)) was ~ 10 fold.

With Cc1ccc2c(c1)C(=O)[C@]1(O)CCN(c3ccc(N)cc3)C1=N2 [para-amino-blebbistatin] the “rupture of LDVP-12pN with inhibitor (in words)” value ([1]; LDVP-12pN, 50 uM, listed as para-amino-Blebbistatin) was “no role”, the “share of rupture requiring myosin II (para-amino-Blebbistatin)” value ([1]; LDVP-33pN) was “about one third” and the “rupture of LDVP-33pN with inhibitor (in words)” value ([1]; LDVP-33pN, 50 uM) was “significantly reduced rupture events”. For the same molecule, the “rupture of RGD-54pN with inhibitor (in words)” value ([1]; RGD-54pN) was “significantly suppressed”, the “share of rupture requiring myosin II (para-amino-Blebbistatin)” value ([1]; RGD-54pN) was “half” and the “cell spreading with inhibitor (in words)” value [1] was “did not disrupt cell spreading”.

With “proTGF-β1: physiologic macromolecular ligand with RGD motif” the “cell morphology (in words)” value ([3]; 1 h after seeding) was “elongated with irregular lamellipodia”.

In the case of “cyclo [Arg-Gly-Asp-D-Phe-Lys(8-amino-3,6-dioxaoctanoic acid dimer)] (head to tail) [RGD-TGT]”, the “tension threshold for cell spreading” value ([3]; 1 h) is reported as 33–43 pN and the retrograde actin flow [4] is reported as 10.1 nm/s.

In the case of Cc1[nH]c2ccccc2c1CCNC(=O)c1ccccc1F [CK666], the “TGT rupture with inhibitor (in words)” value [1] is reported as “no significant effect”.
